In patent US20240425464A1, “Substituted Monohydrazides as Potent Antifungal Agents” (University of Kentucky Research Foundation, priority 2023, published 2024):
Converted amounts (≈) assume the structure as drawn. Read-outs that look alike come from different tables or passages of the source.

Key:
Assay in all cases: MIC determination by in vitro antifungal assay
Assay type in all cases: cell-based
[1] = system: Aspergillus nidulans ATCC 38163 (P)
Experimental: (§1) 10 mg/mL stock solutions of compounds 1a-9j were prepared in dimethyl sulfoxide (DMSO) and were stored at −20° C. in the dark. The antifungal agent amphotericin B (AmB) was purchased from VWR (Radnor PA, USA). AmB was dissolved in DMSO at a final concentration of 5 mg/mL and was stored at −20° C., protected from light. Candida albicans American Type Culture Collection (ATCC) 10231 (strain A), C. albicans ATCC 64124 (B), and C. albicans ATCC MYA-2876 (C) were obtained from Utah State University. C. albicans ATCC 90819 (D), C. albicans ATCC MYA-2310 (E), C. albicans ATCC MYA-1237 (F), C. albicans ATCC MYA-1003 (G), Candida glabrata ATCC 2001 (H), Candida krusei ATCC 6258 (I), Candida parapsilosis ATCC 22019 (J), Cryptococcus neoformans ATCC MYA-895 (M), Aspergillus terreus ATCC MYA-3633 (N), and Aspergillus flavus ATCC MYA-3631 (0) were obtained from the American Type Culture Collection (ATCC; Manassas, VA, USA). Aspergillus nidulans ATCC 38163 (P) was obtained from University of Kentucky. Clinically derived Aspergillus fumigatus NRRL 163 (Q), A. fumigatus NRRL 5109 (R), and A. fumigatus NRRL 6113 (S) were obtained from Northern Regional Research Laboratory (NRRL). Candida auris 384 (K), C. auris 390 (L), and fungal strains 381-400 (including 10 C. auris (AR Bank #381-390), 3 Candida duobushaemulonii (AR Bank #391, AR Bank #392, and AR Bank #394), 2 Candida haemulonii (AR Bank #393 and AR Bank #395), 1 Kodameae ohmeri (AR Bank #396), 1 C. krusei (AR Bank #397), 1 Candida lusitaniae (AR Bank #398), and 2 Saccharomyces cerevisiae strains (AR Bank #399 and AR Bank #400)) were part of a larger fungal library from the AR Bank maintained by the Centers for Disease Control and Prevention (CDC; Atlanta, GA, USA). Filamentous fungi and yeasts were cultivated at 35° C. in RPMI 1640 medium (with L-glutamine, without sodium bicarbonate, Sigma-Aldrich, St. Louis, MO) buffered to a pH of 7.0 with 0.165 M morpholinepropanesulfonic acid (MOPS) buffer (Sigma-Aldrich). For cytotoxicity assays, HepG2 and the mouse macrophage cell line J774A.1 were obtained from University of Kentucky. The human embryonic kidney cell line, HEK-293, was bought from the ATCC. Mammalian cells were grown in Dulbecco's Modified Eagle's Medium (DMEM) (from VWR) with 10% fetal bovine serum (FBS) (from VWR) and 1% Pen/Strep (from ATCC). Cell lines were cultured at 37° C. with 5% CO2 and passaged by trypsinization with 0.05% trypsin: 0.53 mM EDTA (from Sigma-Aldrich).
(§2) The MIC values of compounds 1a-9j against yeast cells (strains A-P and 381-400) were determined in 96-well plates as described in the CLSI documents M27-A3 and M38-A2 with minor modifications.^2 A single colony of freshly prepared yeast cells was used to inoculate 5 mL of yeast extract peptone dextrose (YPD) broth prior to incubation overnight with shaking at 200 rpm at 35° C. From the actively growing yeast culture, 100 µL were then transferred to 900 μL of RPMI 1640 medium and re-adjusted to achieve OD600 of 0.12 (˜1×10^6 CFU/mL). The cell suspension was further diluted to achieve 1:100 in RPMI 1640 medium. 100 μL of cells were added to the wells of a 96-well microtiter plates that contained 100 µL of the compound solution to obtain concentrations of 0.06-31.3 μg/mL of compounds 1a-9j or AmB prior to incubation for 48 h at 35° C.
(§3) Finally, the activity of these monohydrazides was explored against […] non-Candida strains: Cryptococcus neoformans ATCC MYA-895 (M), Aspergillus terreus ATCC MYA-3633 (N), Aspergillus flavus ATCC MYA-3631 (O), Aspergillus nidulans ATCC 38163 (P), Aspergillus fumigatus NRRL 163 (Q), A. fumigatus NRRL 5109 (R), and A. fumigatus NRRL 6113 (S) (Tables 1A and 1B). The double dilution method was used with concentrations ranging from 0.06 to 31.3 j·tg mL^−1 for monohydrazides 1a-9j, and the commercially available positive antifungal control amphotericin B (AmB).

[2] = system: Aspergillus flavus ATCC MYA-3631 (O); details: strain O = A. flavus ATCC MYA-3631
Experimental: as §1, §2, §3

[3] = system: Aspergillus terreus ATCC MYA-3633 (N); details: strain N = A. terreus ATCC MYA-3633
Experimental: as §1, §2, §3

[4] = system: Cryptococcus neoformans ATCC MYA-895 (M); details: strain M = C. neoformans ATCC MYA-895
Experimental: as §1, §2, §3

[5] = strain P = A. nidulans ATCC 38163
[6] = Aspergillus nidulans, ATCC38163, strain P = A. nidulans ATCC 38163, read-out: MIC
[7] = Aspergillus flavus, read-out: MIC
[8] = Aspergillus terreus, read-out: MIC
[9] = Cryptococcus neoformans, read-out: MIC

O=C(NNc1ccc(Cl)cc1)c1ncc(F)cc1F [Compound 7e]
MIC [1, 5]: 7.8 μg/mL^−1
MIC [2]: >31.3 μg/mL^−1
MIC [3]: >31.3 μg/mL^−1
MIC [4]: 1.95 μg/mL^−1

O=C(NNc1cccc(Cl)c1)c1cnccn1 [Compound 9b]
MIC [1, 6]: 0.98 µg/mL (≈ 3.94 µM)
MIC [2, 7]: > 31.3 µg/mL
MIC [3, 8]: 0.98 µg/mL (≈ 3.94 µM)
MIC [4, 9]: 0.24 µg/mL (≈ 0.965 µM)

O=C(NNc1ccc(F)cc1)c1cccc(Br)n1 [Compound 6d]
MIC [1, 6]: 0.98 µg/mL (≈ 3.16 µM)
MIC [2, 7]: 15.6 µg/mL (≈ 50.3 µM)
MIC [3, 8]: 3.9 µg/mL (≈ 12.6 µM)
MIC [4, 9]: 0.98 µg/mL (≈ 3.16 µM)

COc1ccc(NNC(=O)c2ccc(F)cc2F)cc1 [Compound 1f]
MIC [1, 6]: 1.95 µg/mL (≈ 7.01 µM)
MIC [2, 7]: > 31.3 µg/mL
MIC [3, 8]: 31.3 µg/mL (≈ 112 µM)
MIC [4, 9]: 0.98 µg/mL (≈ 3.52 µM)

COc1cccc(NNC(=O)c2cnccn2)c1 [Compound 9c]
MIC [1, 6]: 1.95 µg/mL (≈ 7.98 µM)
MIC [2, 7]: > 31.3 µg/mL
MIC [3, 8]: 1.95 µg/mL (≈ 7.98 µM)
MIC [4, 9]: 0.49 µg/mL (≈ 2.01 µM)

O=C(NNc1cccc(F)c1)c1ccc(Br)cn1 [Compound 4a]
MIC [1, 5]: 1.95 μg/mL^−1
MIC [2]: 15.6 μg/mL^−1
MIC [3]: 0.98 μg/mL^−1
MIC [4]: 0.06 μg/mL^−1

O=C(NNc1cc(F)ccc1F)c1cnccn1 [Compound 9h]
MIC [1, 6]: 1.95 µg/mL (≈ 7.79 µM)
MIC [2, 7]: > 31.3 µg/mL
MIC [3, 8]: 1.95 µg/mL (≈ 7.79 µM)
MIC [4, 9]: 0.49 µg/mL (≈ 1.96 µM)

COc1ccc(NNC(=O)c2ccccn2)cc1 [Compound 2f]
MIC [1, 6]: 0.49 µg/mL (≈ 2.01 µM)
MIC [2, 7]: > 31.3 µg/mL
MIC [3, 8]: 31.3 µg/mL (≈ 129 µM)
MIC [4, 9]: 0.49 µg/mL (≈ 2.01 µM)

O=C(NNc1ccc(Cl)cc1)c1nc(F)ccc1F [Compound 8e]
MIC [1, 5]: 7.8 μg/mL^−1
MIC [2]: >31.3 μg/mL^−1
MIC [3]: >31.3 μg/mL^−1
MIC [4]: 1.95 μg/mL^−1

O=C(NNc1ccc(F)cc1F)c1cnccn1 [Compound 9g]
MIC [1, 6]: 0.49 µg/mL (≈ 1.96 µM)
MIC [2, 7]: 7.8 µg/mL (≈ 31.2 µM)
MIC [3, 8]: 0.98 µg/mL (≈ 3.92 µM)
MIC [4, 9]: 0.24 µg/mL (≈ 0.959 µM)

COc1ccc(NNC(=O)c2cnccn2)cc1 [Compound 9f]
MIC [1, 6]: 0.98 µg/mL (≈ 4.01 µM)
MIC [2, 7]: > 31.3 µg/mL
MIC [3, 8]: > 31.3 µg/mL
MIC [4, 9]: 0.98 µg/mL (≈ 4.01 µM)

O=C(NNc1cccc(F)c1)c1cccc(Br)n1 [Compound 6a]
MIC [1, 5]: 1.95 μg/mL^−1
MIC [2]: 31.3 μg/mL^−1
MIC [3]: 3.9 μg/mL^−1
MIC [4]: ≤0.06 μg/mL^−1

COc1cccc(NNC(=O)c2ccc(Br)cn2)c1 [Compound 4c]
MIC [1, 6]: 1.95 µg/mL (≈ 6.05 µM)
MIC [2, 7]: > 31.3 µg/mL
MIC [3, 8]: 3.9 µg/mL (≈ 12.1 µM)
MIC [4, 9]: 0.49 µg/mL (≈ 1.52 µM)

O=C(NNc1ccc(Cl)cc1)c1ccc(F)cn1 [Compound 3e]
MIC [1, 5]: 15.6 μg/mL^−1
MIC [2]: >31.3 μg/mL^−1
MIC [3]: >31.3 μg/mL^−1
MIC [4]: 3.9 μg/mL^−1

O=C(NNc1ccc(F)cc1)c1ccc(Br)cn1 [Compound 4d]
MIC [1, 6]: 1.95 µg/mL (≈ 6.29 µM)
MIC [2, 7]: 15.6 µg/mL (≈ 50.3 µM)
MIC [3, 8]: 7.8 µg/mL (≈ 25.2 µM)
MIC [4, 9]: 0.98 µg/mL (≈ 3.16 µM)

COc1ccc(NNC(=O)c2ncc(F)cc2F)cc1 [Compound 7f]
MIC [1, 6]: 1.95 µg/mL (≈ 6.98 µM)
MIC [2, 7]: > 31.3 µg/mL
MIC [3, 8]: 31.3 µg/mL (≈ 112 µM)
MIC [4, 9]: 1.95 µg/mL (≈ 6.98 µM)

O=C(NNc1ccc(F)cc1)c1nc(F)ccc1F [Compound 8d]
MIC [1, 6]: 0.49 µg/mL (≈ 1.83 µM)
MIC [2, 7]: 7.8 µg/mL (≈ 29.2 µM)
MIC [3, 8]: 1.95 µg/mL (≈ 7.3 µM)
MIC [4, 9]: 0.49 µg/mL (≈ 1.83 µM)

O=C(NNc1cc(F)ccc1F)c1ccccn1 [Compound 2h]
MIC [1, 6]: 0.49 µg/mL (≈ 1.97 µM)
MIC [2, 7]: 3.9 µg/mL (≈ 15.6 µM)
MIC [3, 8]: 0.98 µg/mL (≈ 3.93 µM)
MIC [4, 9]: 0.49 µg/mL (≈ 1.97 µM)

O=C(NNc1cccc(F)c1)c1nc(F)ccc1F [Compound 8a]
MIC [1, 5]: 1.95 μg/mL^−1
MIC [2]: >31.3 μg/mL^−1
MIC [3]: 3.9 μg/mL^−1
MIC [4]: ≤0.06 μg/mL^−1

O=C(NNc1ccc(F)cc1)c1ccccn1 [Compound 2d]
MIC [1, 6]: 0.49 µg/mL (≈ 2.12 µM)
MIC [2, 7]: 31.3 µg/mL (≈ 135 µM)
MIC [3, 8]: 1.95 µg/mL (≈ 8.43 µM)
MIC [4, 9]: 0.24 µg/mL (≈ 1.04 µM)

O=C(NNc1cccc(Cl)c1)c1ccc(F)cc1F [Compound 1b]
MIC [1, 6]: 3.9 µg/mL (≈ 13.8 µM)
MIC [2, 7]: > 31.3 µg/mL
MIC [3, 8]: 7.8 µg/mL (≈ 27.6 µM)
MIC [4, 9]: 1.95 µg/mL (≈ 6.9 µM)

O=C(NNc1cc(Cl)cc(Cl)c1)c1ccccn1 [Compound 2j]
MIC [1, 6]: 0.49 µg/mL (≈ 1.74 µM)
MIC [2, 7]: > 31.3 µg/mL
MIC [3, 8]: 1.95 µg/mL (≈ 6.91 µM)
MIC [4, 9]: 0.49 µg/mL (≈ 1.74 µM)

COc1ccc(NNC(=O)c2cccc(F)n2)cc1 [Compound 5f]
MIC [1, 6]: 1.95 µg/mL (≈ 7.46 µM)
MIC [2, 7]: > 31.3 µg/mL
MIC [3, 8]: 15.6 µg/mL (≈ 59.7 µM)
MIC [4, 9]: 0.24 µg/mL (≈ 0.919 µM)

COc1ccc(NNC(=O)c2cccc(Br)n2)cc1 [Compound 6f]
MIC [1, 6]: 3.9 µg/mL (≈ 12.1 µM)
MIC [2, 7]: > 31.3 µg/mL
MIC [3, 8]: 7.8 µg/mL (≈ 24.2 µM)
MIC [4, 9]: 1.95 µg/mL (≈ 6.05 µM)

O=C(NNc1ccc(Cl)cc1)c1ccc(F)cc1F [Compound 1e]
MIC [1, 5]: 31.3 μg/mL^−1
MIC [2]: >31.3 μg/mL^−1
MIC [3]: 31.3 μg/mL^−1
MIC [4]: 1.95 μg/mL^−1

O=C(NNc1cccc(F)c1)c1ncc(F)cc1F [Compound 7a]
MIC [1, 5]: 0.98 μg/mL^−1
MIC [2]: >31.3 μg/mL^−1
MIC [3]: 3.9 μg/mL^−1
MIC [4]: ≤0.06 μg/mL^−1

O=C(NNc1cccc(F)c1)c1cccc(F)n1 [Compound 5a]
MIC [1, 5]: 0.98 μg/mL^−1
MIC [2]: >31.3 μg/mL^−1
MIC [3]: 1.95 μg/mL^−1
MIC [4]: ≤0.06 μg/mL^−1

O=C(NNc1ccc(F)cc1)c1cccc(F)n1 [Compound 5d]
MIC [1, 6]: 0.98 µg/mL (≈ 3.93 µM)
MIC [2, 7]: 7.8 µg/mL (≈ 31.3 µM)
MIC [3, 8]: 1.95 µg/mL (≈ 7.82 µM)
MIC [4, 9]: 0.49 µg/mL (≈ 1.97 µM)
